Measurements reported in patent US20050209335A1, “Methods for use of TARGRETIN in organ transplant rejection, autoimmune diseases and cancer” (priority 2004, published 2005).
Read-outs that look alike come from different tables or passages of the source.

What was measured:
[1] = test system: acute myeloid leukemia (AML); assay type: in vivo
Method: In these studies, five patients with relapsed refractory AML were treated with TARGRETIN monotherapy.
The first patient had failed induction chemotherapy, had fungal pneumonia, and active leukemia with no immune system. This patient was sent home under hospice care, but given TARGRETIN to take orally in a pill formulation. Within a few months, this patient no longer needed hospice care and had returned to work. It is believed that upon administration of TARGRETIN, this patient was able to maintain an immune system, thereby clearing the fungal pneumonia and preventing further fatal infections.
The second patient was a heart transplant patient who developed AML and failed induction chemotherapy as well as a second line of chemotherapy. With active leukemia and no immune system they were placed on TARGRETIN. […] Upon escalation of the TARGRETIN dose it was observed that their neutrophil count continued to increase and the leukemia count dropped. This increase in neutrophil count and decrease in leukemia count continued with each dose escalation until the patient was taking six TARGRETIN capsules a day. […] This syndrome is a cell differentiation disorder wherein leukemia cells differentiate into normal immune cells. While this syndrome is good in that it boosts the immune system while decreasing the leukemia count, cytokines released by the differentiating neutrophils can cause a pulmonary syndrome. At six TARGRETIN capsules a day the second patient developed a syndrome exactly like that observed in ATRA administration. TARGRETIN treatment was stopped and within one week the neutrophil count dropped from 1500 to 200 and the pulmonary syndrome resolved. TARGRETIN treatment was then restarted at three capsules daily and the neutrophil count returned to 600. This patient continued treatment for an additional 9 months at which time they developed an infection and died. At the time of death their leukemia was still well under control.
The third patient had failed induction therapy and was suffering from active AML with disseminated intravascular coagulation (DIC), a blood clotting disorder relating to active leukemia. This patient was completely bed-ridden. It was believed that they could not tolerate further chemotherapy and was placed on TARGRETIN. […] They also developed a small number of immune cells and was able to return to their home where their physical condition continued to improve. This patient lived for approximately 4.5 months before they developed progressive leukemia. At that point they declined further therapy and expired.
The fourth patient had raging AML. This patient was placed on TARGRETIN but expired within 3 days of starting treatment. It is believed that the TARGRETIN treatment may have been started too late in the course of this patient's disease to provide an effect.
The fifth patient treated with TARGRETIN was suffering from a relapse after already having undergone an allogeneic bone marrow transplant, one of the most aggressive treatments possible for AML. […] This patient ultimately expired, however, from complications relating to their bone marrow transplant.

[2] = test system: T-cell non-Hodgkin's lymphoma; assay: TARGRETIN in patients with T-cell non-Hodgkin's lymphomas other than cutaneous T-cell lymphoma; assay type: in vivo, human
Method: Specifically, TARGRETIN was administered to a patient suffering from a post-transplant lymphoproliferative disorder type lymphoma. This is a T-cell non-Hodgkin's lymphoma related to organ transplantation. This patient had horrific lymphoma with involvement of their cerebral spinal fluid.
TARGRETIN was administered to a second patient suffering from a rare type of T-cell lymphoma, an angiocentric T-cell lymphoma.

[3] = test system: refractory acute lymphocytic leukemia; assay: TARGRETIN in combination with low dose chemotherapy in two patients with refractory acute lymphocytic leukemia; assay type: in vivo, human; settings: both patients
Method: In these experiments, two patients with refractory acute lymphocytic leukemia were treated with TARGRETIN in combination with low dose chemotherapy.

eczema dermatitis = assay: TARGRETIN as substitute for tacrolimus and steroids in eczema dermatitis; settings: in vivo
[4] = Tolerability of TARGRETIN dosing regimes in patients; assay type: in vivo, human
Excerpt: Further, by “effective amount” as used herein, it is meant a concentration of TARGRETIN administered by a selected route and dosing schedule which lessens or decreases severity of a symptom of the disease state or condition from which the patient is suffering and/or a concentration of TARGRETIN which increases neutrophil count in a patient and/or a concentration of TARGRETIN which increases the efficacy of a co-administered cancer chemotherapeutic agent. Such amounts can be routinely determined by those skilled in the art based upon the teachings herein as well as what is known in the art about TARGRETIN with respect to treatment of cutaneous T-cell lymphoma. […] Further, the Food and Drug Administration's approved dose for TARGRETIN in the treatment of cutaneous T-cell lymphoma is 300 mg/M^2. It is expected that similar dosages will also be effective in treating autoimmune diseases or disorders, and in particular graft versus host disease, as well as organ transplant rejection.

melanoma = settings: single daily oral dose of 450 mg/m^2 in capsule form; cited from earlier work
[5] = test system: squamous cell carcinoma of the head and neck; settings: cited from earlier work
[6] = test system: non-small-cell lung carcinoma; settings: oral, in combination with cisplatin and vinorelbin, previously untreated patients; cited from earlier work
[7] = test system: NMU-induced mammary carcinomas; settings: rat; cited from earlier work

SMILES: C=C(c1ccc(C(=O)O)cc1)c1cc2c(cc1C)C(C)(C)CCC2(C)C [TARGRETIN]
- immune response upon initiation of treatment ([1]; fifth patient, relapse after allogeneic bone marrow transplant): mounted an immune system response
- duration leukemia kept under control ([1]; first patient, oral pill formulation): kept under control for nine months
- time to death after starting treatment ([1]; fourth patient, raging AML): ≤ 3 days
- adverse event ([1]; human, in vivo): developed a pulmonary syndrome very similar to that seen in patients taking trans retinoic acid (ATRA)
- additional duration of treatment, leukemia still well under control at death ([1]; second patient, after restart at three capsules daily): 9 months
- neutrophil count ([1]; second patient, at six capsules a day, before treatment was stopped): 1500
- neutrophil count ([1]; second patient, treatment restarted at three capsules daily): 600
- neutrophil count ([1]; second patient, within one week after TARGRETIN treatment was stopped): 200
- change of neutrophil count and leukemia count after start of treatment ([1]; second patient, within one week of treatment): neutrophil count and/or immune system was rising and their leukemia count was dropping
- patients exhibiting a positive response (increase in neutrophil count and/or decrease in leukemia count) ([1]; terminal AML, TARGRETIN monotherapy): 4 out of 5
- resolution of disseminated intravascular coagulation (DIC) ([1]; third patient): resolved within four days
- time lived before progressive leukemia ([1]; third patient): approximately 4.5 months
- duration of remission ([2]; patient with angiocentric T-cell lymphoma, prior bone marrow transplant failed): in remission for three months
- duration of remission ([2]; patient with post-transplant lymphoproliferative disorder type lymphoma, prior chemotherapy failed): in remission for four months
- efficacy of combination treatment [3]: significantly greater than expected
- efficacy in eczema dermatitis (eczema dermatitis): effective substitute for tacrolimus and steroids
- tolerability ([4]; 100 to 150 mg per meter square of body surface area, ongoing clinical trials): well-tolerated
- tolerability ([4]; oral 2-3 capsules a day or 150 to 225 mg a day): without unwanted side effects
- efficacy against melanoma (melanoma): ineffective
- effect on proliferation [5]: decrease
- response rate and survival [6]: acceptable phase II response rates with better-than expected survival
- efficacy as chemopreventative and chemotherapeutic agent [7]: efficacious
